Measurements as given in patent publication EP1432683B9 (Recordati Ireland Limited, priority 2001, dated 2003).
Where a name gives a salt, the structure may show the parent alone. Read-outs that look alike come from different tables or passages of the source.

Columns and labels:
[1] = Hygroscopicity by DVS analysis; assay type: physicochemical; conditions: 25°C
Procedure: The hygroscopicity of both crystalline Forms (I) and (II) was measured with DVS analysis by means of a water absorption analyzer (SURFACE MEASUREMENT SYSTEM, Marion, Buckinghamshire, UK) according to the following working conditions: […]

[2] = Bioavailability of crystalline Forms (I) and (II) in dogs; assay type: in vivo, Beagle dogs; conditions: for AUC0-t / Cmax / concentration in plasma of lercanidipine (S+R): oral 3 mg/kg
Procedure: A study was carried out on six Beagle dogs to evaluate the bioavailability of crystalline Forms (I) and (II).
Blood samples were taken at given times and plasma concentrations of lercanidipine were determined with a stereoselective analytical method HPLC-MS/MS, according to the following working conditions;
Lercanidipine was extracted from dog plasma by means of a liquid-liquid extraction with a mixture of n-hexane and ethyl ether. The dry residue of the organic phase was taken up with a mixture of methanol and water and a liquid-phase chromatographic separation (LC) was carried out; the two enantiomers of lercanidipine were separated on a CHIROBIOTIC V column (Vancomycin) (particle size […], column size 150 x 4.6 mm (ASTEC, NJ, USA)) and were detected with a mass spectrometer (MS/MS) by using an electrospray technique.
The analytical method was validated in a concentration range between 0.1 and 20 ng/ml of plasma for both enantiomers. The method has shown to be specific with an accuracy of 15%. The average concentrations of lercanidipine in the tables represent the sum of both enantiomers.

[3] = Solubility in mixtures of water-ethanol at 25°C and 40°C; assay type: physicochemical
[4] = Relative bioavailability of Form (I) and Form (II) in man; assay type: in vivo; conditions: 10 mg tablet
Procedure: Blood samples were taken at 15 points from time 0 to 24 h post-dosing and plasma concentrations of lercanidipine were determined with a stereoselective analytical method HPLC-MS/MS.

COC(=O)C1=C(C)NC(C)=C(C(=O)OC(C)(C)CN(C)CCC(c2ccccc2)c2ccccc2)C1c1cccc([N+](=O)[O-])c1 (single isomer, unassigned) [Form (I), lercanidipine hydrochloride]
mass change ([1]; at 0% RH): -0.3% | mass change ([1]; at 95% RH): +0.15% | AUC0-t ([2]; Dog 1, hydrochloride, 3 mg/kg): 15.41 ng/h/mL | Cmax ([2]; Dog 1, hydrochloride, 3 mg/kg): 8.29 ng/mL | Cmax ([2]; Dog 2 (not included in mean), hydrochloride, 3 mg/kg): 128.87 ng/mL | AUC0-t ([2]; Dog 3, hydrochloride, 3 mg/kg): 27.544 ng/h/mL | Cmax ([2]; Dog 3, hydrochloride, 3 mg/kg): 11.62 ng/mL | AUC0-t ([2]; Dog 4, hydrochloride, 3 mg/kg): 46.57 ng/h/mL | Cmax ([2]; Dog 4, hydrochloride, 3 mg/kg): 27.17 ng/mL | AUC0-t ([2]; Dog 5, hydrochloride, 3 mg/kg): 70.39 ng/h/mL | Cmax ([2]; Dog 5, hydrochloride, 3 mg/kg): 22.58 ng/mL | AUC0-t ([2]; Dog 6, hydrochloride, 3 mg/kg): 28.72 ng/h/mL | Cmax ([2]; Dog 6, hydrochloride, 3 mg/kg): 17.83 ng/mL | Cmax ([2]; Mean (n=5, Dog 2 not included), hydrochloride, 3 mg/kg): 17.50 ng/mL | concentration in plasma of lercanidipine (S+R) ([2]; Time 0 h, Dog 1): 0.00 ng/mL | concentration in plasma of lercanidipine (S+R) ([2]; Time 0 h, Dog 2 (not included in mean)): 0.00 ng/mL | concentration in plasma of lercanidipine (S+R) ([2]; Time 0 h, Dog 3): 0.00 ng/mL | concentration in plasma of lercanidipine (S+R) ([2]; Time 0 h, Dog 4): 0.00 ng/mL | concentration in plasma of lercanidipine (S+R) ([2]; Time 0 h, Dog 5): 0.00 ng/mL | concentration in plasma of lercanidipine (S+R) ([2]; Time 0 h, Dog 6): 0.00 ng/mL | concentration in plasma of lercanidipine (S+R) ([2]; Time 0 h, Mean (Dog 2 not included)): 0.00 ng/mL | concentration in plasma of lercanidipine (S+R) ([2]; Time 0.5 h, Dog 2 (not included in mean), hydrochloride, 3 mg/kg, 30 min): 0.20 ng/mL | concentration in plasma of lercanidipine (S+R) ([2]; Time 0.5 h, Dog 3, hydrochloride, 3 mg/kg): 0.00 ng/mL | concentration in plasma of lercanidipine (S+R) ([2]; Time 0.5 h, Dog 4): 0.00 ng/mL | concentration in plasma of lercanidipine (S+R) ([2]; Time 0.5 h, Dog 5): 0.00 ng/mL | concentration in plasma of lercanidipine (S+R) ([2]; Time 0.5 h, Dog 6): 0.00 ng/mL | concentration in plasma of lercanidipine (S+R) ([2]; Time 0.5 h, Mean (Dog 2 not included), hydrochloride, 3 mg/kg): 0.00 ng/mL | concentration in plasma of lercanidipine (S+R) ([2]; Time 1 h, Dog 2 (not included in mean), hydrochloride, 3 mg/kg, 60 min): 0.29 ng/mL | concentration in plasma of lercanidipine (S+R) ([2]; Time 1 h, Dog 3, hydrochloride, 3 mg/kg): 0.00 ng/mL | concentration in plasma of lercanidipine (S+R) ([2]; Time 1 h, Dog 4, hydrochloride, 3 mg/kg): 0.00 ng/mL | concentration in plasma of lercanidipine (S+R) ([2]; Time 1 h, Dog 5, hydrochloride, 3 mg/kg): 0.00 ng/mL | concentration in plasma of lercanidipine (S+R) ([2]; Time 1 h, Dog 6): 0.00 ng/mL | concentration in plasma of lercanidipine (S+R) ([2]; Time 1 h, Mean (Dog 2 not included), hydrochloride, 3 mg/kg, 60 min): 0.12 ng/mL | concentration in plasma of lercanidipine (S+R) ([2]; Time 1.5 h, Dog 1, hydrochloride, 3 mg/kg, 90 min): 1.83 ng/mL | concentration in plasma of lercanidipine (S+R) ([2]; Time 1.5 h, Dog 2 (not included in mean), hydrochloride, 3 mg/kg, 90 min): 1.06 ng/mL | concentration in plasma of lercanidipine (S+R) ([2]; Time 1.5 h, Dog 3, hydrochloride, 3 mg/kg, 90 min): 0.32 ng/mL | concentration in plasma of lercanidipine (S+R) ([2]; Time 1.5 h, Dog 4, hydrochloride, 3 mg/kg): 0.00 ng/mL | concentration in plasma of lercanidipine (S+R) ([2]; Time 1.5 h, Dog 5, hydrochloride, 3 mg/kg, 90 min): 1.33 ng/mL | concentration in plasma of lercanidipine (S+R) ([2]; Time 1.5 h, Dog 6, hydrochloride, 3 mg/kg): 0.00 ng/mL | concentration in plasma of lercanidipine (S+R) ([2]; Time 1.5 h, Mean (Dog 2 not included), hydrochloride, 3 mg/kg, 90 min): 0.70 ng/mL | concentration in plasma of lercanidipine (S+R) ([2]; Time 2 h, Dog 1, hydrochloride, 3 mg/kg, 120 min): 8.29 ng/mL | concentration in plasma of lercanidipine (S+R) ([2]; Time 2 h, Dog 2 (not included in mean), hydrochloride, 3 mg/kg, 120 min): 8.94 ng/mL | concentration in plasma of lercanidipine (S+R) ([2]; Time 2 h, Dog 3, hydrochloride, 3 mg/kg, 120 min): 0.94 ng/mL | concentration in plasma of lercanidipine (S+R) ([2]; Time 2 h, Dog 4, hydrochloride, 3 mg/kg, 120 min): 0.35 ng/mL | concentration in plasma of lercanidipine (S+R) ([2]; Time 2 h, Dog 5, hydrochloride, 3 mg/kg, 120 min): 17.11 ng/mL | concentration in plasma of lercanidipine (S+R) ([2]; Time 2 h, Dog 6, hydrochloride, 3 mg/kg, 120 min): 0.28 ng/mL | concentration in plasma of lercanidipine (S+R) ([2]; Time 2 h, Mean (Dog 2 not included), hydrochloride, 3 mg/kg, 120 min): 5.39 ng/mL | concentration in plasma of lercanidipine (S+R) ([2]; Time 3 h, Dog 1, hydrochloride, 3 mg/kg, 180 min): 4.44 ng/mL | concentration in plasma of lercanidipine (S+R) ([2]; Time 3 h, Dog 2 (not included in mean), hydrochloride, 3 mg/kg, 180 min): 36.39 ng/mL | concentration in plasma of lercanidipine (S+R) ([2]; Time 3 h, Dog 3, hydrochloride, 3 mg/kg, 180 min): 0.92 ng/mL | concentration in plasma of lercanidipine (S+R) ([2]; Time 3 h, Dog 4, hydrochloride, 3 mg/kg, 180 min): 27.17 ng/mL | concentration in plasma of lercanidipine (S+R) ([2]; Time 3 h, Dog 5, hydrochloride, 3 mg/kg, 180 min): 22.58 ng/mL | concentration in plasma of lercanidipine (S+R) ([2]; Time 3 h, Dog 6, hydrochloride, 3 mg/kg, 180 min): 1.29 ng/mL | concentration in plasma of lercanidipine (S+R) ([2]; Time 3 h, Mean (Dog 2 not included), hydrochloride, 3 mg/kg, 180 min): 11.28 ng/mL | concentration in plasma of lercanidipine (S+R) ([2]; Time 4 h, Dog 1, hydrochloride, 3 mg/kg, 240 min): 1.81 ng/mL | concentration in plasma of lercanidipine (S+R) ([2]; Time 4 h, Dog 2 (not included in mean), hydrochloride, 3 mg/kg, 240 min): 128.87 ng/mL | concentration in plasma of lercanidipine (S+R) ([2]; Time 4 h, Dog 3, hydrochloride, 3 mg/kg, 240 min): 9.42 ng/mL | concentration in plasma of lercanidipine (S+R) ([2]; Time 4 h, Dog 4, hydrochloride, 3 mg/kg, 240 min): 11.07 ng/mL | concentration in plasma of lercanidipine (S+R) ([2]; Time 4 h, Dog 5, hydrochloride, 3 mg/kg, 240 min): 16.39 ng/mL | concentration in plasma of lercanidipine (S+R) ([2]; Time 4 h, Dog 6, hydrochloride, 3 mg/kg, 240 min): 6.26 ng/mL | concentration in plasma of lercanidipine (S+R) ([2]; Time 4 h, Mean (Dog 2 not included), hydrochloride, 3 mg/kg, 240 min): 8.99 ng/mL | concentration in plasma of lercanidipine (S+R) ([2]; Time 6 h, Dog 1, hydrochloride, 3 mg/kg, 360 min): 0.80 ng/mL | concentration in plasma of lercanidipine (S+R) ([2]; Time 6 h, Dog 2 (not included in mean), hydrochloride, 3 mg/kg, 360 min): 26.65 ng/mL | concentration in plasma of lercanidipine (S+R) ([2]; Time 6 h, Dog 3, hydrochloride, 3 mg/kg, 360 min): 11.62 ng/mL | concentration in plasma of lercanidipine (S+R) ([2]; Time 6 h, Dog 4, hydrochloride, 3 mg/kg, 360 min): 2.53 ng/mL | Tmax ([2]; dog, plasma, po, 3 mg/kg, Dog 1, read-out: Tmax): 2 h | Tmax ([2]; dog, plasma, po, 3 mg/kg, Dog 4, read-out: Tmax): 3 h | Tmax ([2]; dog, plasma, po, 3 mg/kg, Dog 5, read-out: Tmax): 3 h | Tmax ([2]; dog, plasma, po, 3 mg/kg, Dog 6, read-out: Tmax): 6 h | Tmax ([2]; dog, plasma, po, 3 mg/kg, Mean (n=5, Dog 2 not included), read-out: Tmax): 4 h | concentration at 0.5 h ([2]; dog, plasma, po, 3 mg/kg, Time 0.5 h, Dog 1, read-out: concentration in plasma of lercanidipine (S+R)): 0.1 ng/mL | concentration at 1 h ([2]; dog, plasma, po, 3 mg/kg, Time 1 h, Dog 1, read-out: concentration in plasma of lercanidipine (S+R)): 0.59 ng/mL | concentration at 6 h ([2]; dog, plasma, po, 3 mg/kg, Time 6 h (last sampling time), Mean (Dog 2 not included), read-out: concentration in plasma of lercanidipine (S+R)): 8.5 ± 6.5 ng/mL | concentration at 6 h ([2]; dog, plasma, po, 3 mg/kg, Time 6 h, Dog 5, read-out: concentration in plasma of lercanidipine (S+R)): 9.73 ng/mL | concentration at 6 h ([2]; dog, plasma, po, 3 mg/kg, Time 6 h, Dog 6, read-out: concentration in plasma of lercanidipine (S+R)): 17.8 ng/mL | solubility compared with Form (II) ([3]; 25°C and 40°C): higher than that of crystalline Form (II) | water concentration at which the maximum solubility is reached ([3]; at both 25°C and 40°C): 20% | tmax compared with Form (II) [4]: shorter than that of Form (II) | AUC(0-t) at 24 h ([4]; human, plasma, po, 10 mg, single dose, geom. least square mean): 8.82 ng·h/mL | Cmax ([4]; human, plasma, po, 10 mg, single dose, geom. least square mean, read-out: Cmax): 3.18 ng/mL | Tmax ([4]; human, plasma, po, 10 mg, single dose, median, read-out: tmax): 1.5 h
